Test results taken from PubChem BioAssay (NCI).
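Tested at 5 concentrations; 48 h exposure; 96-well plates; endpoints linearly interpolated, else capped at highest concentration. Here, GI50 denotes the concentration required for 50% inhibition of growth. TGI marks complete inhibition of growth.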

How the values were obtained:
Experiment in all cases: NCI-60 cell line screen, 48 h
CAKI-1 renal = system: CAKI-1 renal
LOX IMVI melanoma = system: LOX IMVI melanoma
M14 melanoma = system: M14 melanoma
MDA-MB-435 = system: MDA-MB-435
NCI-H23 lung = system: NCI-H23 lung
OVCAR-5 ovarian = system: OVCAR-5 ovarian
RXF 393 renal = system: RXF 393 renal
SF-539 CNS = system: SF-539 CNS
SNB-19 CNS = system: SNB-19 CNS
T-47D breast = system: T-47D breast

Compound	TGI (CAKI-1 renal)	TGI (LOX IMVI melanoma)	TGI (M14 melanoma)	TGI (MDA-MB-435)	TGI (NCI-H23 lung)	TGI (OVCAR-5 ovarian)	TGI (RXF 393 renal)	TGI (SF-539 CNS)	TGI (SNB-19 CNS)	TGI (T-47D breast)	GI50 (M14 melanoma)	GI50 (CAKI-1 renal)	GI50 (LOX IMVI melanoma)	GI50 (MDA-MB-435)	GI50 (NCI-H23 lung)	GI50 (OVCAR-5 ovarian)	GI50 (RXF 393 renal)	GI50 (SF-539 CNS)	GI50 (SNB-19 CNS)	GI50 (T-47D breast)
Cc1nnc2sc(N/N=C/c3ccccc3)nn12	> 100 µM	> 100 µM	> 100 µM	> 100 µM	> 100 µM	> 100 µM	> 100 µM	> 100 µM	> 100 µM	> 100 µM										
CC1(C)[C@@H]2C[C@H]1C(Cc1cccc(C[C@H]3c4cc(-c5ccccn5)ncc4[C@H]4C[C@@H]3C4(C)C)c1)c1cc(-c3ccccn3)ncc12 (some centres undefined)	> 100 µM	4.15 µM	8.45 µM	> 58.5 µM	> 63.9 µM	> 100 µM	> 100 µM	> 28.4 µM	> 100 µM	> 100 µM	0.858 µM									
CCS(=O)(=O)c1c2cc(OC)ccc2nc2ccc(OC)cc12	> 100 µM	> 100 µM	> 100 µM	> 100 µM	> 100 µM	> 100 µM	> 100 µM	> 100 µM	> 100 µM	> 100 µM										
CC[C@@H]1CC[C@@H]2[C@H](CC[C@]3(C)[C@@H](OS(=O)(=O)c4ccc(C)cc4)CC[C@@H]23)[C@H]1CO	> 100 µM	> 100 µM	> 100 µM	> 100 µM	> 100 µM	> 100 µM	> 100 µM	> 100 µM	> 100 µM	> 100 µM										
CCOC(=O)C(NCc1cccc(C(F)(F)F)c1)(NC(=O)c1ccccc1)C(F)(F)F (centres undefined)	41.2 µM	48.3 µM	> 100 µM	79 µM	70.8 µM	> 100 µM	72.1 µM	> 100 µM	> 100 µM	80 µM										
CCOC(=O)N(C)C1(c2ccccc2)CCN(CCCC(=O)c2ccc(F)cc2)CC1	> 100 µM	42.3 µM	32.1 µM	53.6 µM	> 100 µM	> 100 µM	> 100 µM	65.7 µM	0.835 µM	> 100 µM										
O=C(Nc1cccc(-n2ccc3c(NC(=O)c4ccccc4)nccc32)c1)c1cc(N2CCOCC2)cc(C(F)(F)F)c1		> 100 µM		0.0688 µM	> 100 µM	> 100 µM	0.159 µM	0.94 µM	> 100 µM	> 100 µM	0.125 µM	0.0641 µM	0.0912 µM	0.0253 µM	0.613 µM	0.696 µM	0.0325 µM	0.0675 µM	0.379 µM	> 51.8 µM
C#CCOC(=O)C(N)CCCN=C(N)N (centres undefined)	> 100 µM	> 100 µM	> 100 µM	> 100 µM	> 100 µM	> 100 µM	> 100 µM	> 100 µM	> 100 µM	> 100 µM										
Nc1ccc(-n2c(=O)oc3ccc(Cl)cc3c2=O)c(Cl)c1	0.479 µM	0.946 µM	0.68 µM	0.883 µM	0.486 µM	> 100 µM	0.293 µM	1.01 µM	> 100 µM	0.263 µM	0.104 µM	0.077 µM	0.128 µM	0.113 µM	0.0921 µM	0.467 µM	0.0838 µM	0.116 µM	0.122 µM	0.0679 µM
CCOC(=O)C(=Cn1c(=S)[nH]c2ccc([N+](=O)[O-])cc21)C(=O)OCC	> 100 µM	> 100 µM	> 100 µM	> 100 µM	> 100 µM	> 100 µM	> 100 µM	> 100 µM	> 100 µM	> 100 µM										
N#Cc1nc(/C=C/c2ccccc2)oc1N	> 100 µM	> 100 µM	> 100 µM	> 100 µM	> 100 µM	> 100 µM	> 100 µM	> 100 µM	> 100 µM	> 100 µM										
